{"source": "paper PMC12164290", "about": "“Immune-modulatory effects of Spindlin-1 inhibitors” (Clinical and Experimental Immunology, 2025)", "key": {"[1]": {"tested_on": "primary human immune cells", "test": "viability of primary human immune cells, formazan-based Orangu assay (ranges over cell types)", "conditions": "48 h", "method": "(§1) 2 × 10^5 CD4^+ T cells, 1 × 10^5 B cells, 1 × 10^5 monocytes, 1 × 10^5 M1 MdMs, or 1 × 10^5 M2 MdMs were treated with A366, MS31, or vehicle for 48 h. The viability was determined with the Orangu^TM assay as described by the manufacturer."}, "monocytes": {"tested_on": "monocytes", "test": "viability assay (Orangu, formazan-based), monocytes", "type": "cell-based, human", "conditions": "48 h, n = 3, read-out: Monocyte viability IC50", "method": "as §1"}, "M1 MdMs [2]": {"tested_on": "M1 MdMs", "test": "viability assay (Orangu, formazan-based), M1 MdM", "type": "cell-based, human", "conditions": "48 h, n = 3", "method": "as §1"}, "M2 MdMs [3]": {"tested_on": "M2 MdMs", "test": "viability assay (Orangu, formazan-based), M2 MdM", "type": "cell-based, human", "conditions": "48 h, n = 3", "method": "as §1"}, "CD4+ T cells [4]": {"tested_on": "CD4+ T cells", "test": "viability assay (Orangu, formazan-based), CD4+ T cells", "set-up": "species or system human", "conditions": "48 h, n = 3, read-out: T cell viability IC50", "method": "as §1"}, "B cells [5]": {"tested_on": "B cells", "test": "viability assay (Orangu, formazan-based), B cells", "set-up": "species or system human", "conditions": "48 h, n = 3, read-out: B cell viability IC50", "method": "as §1"}, "M1 macrophages": {"tested_on": "M1 macrophages", "test": "polarization of MdMs to M1 macrophages (surface markers, cytokines, viability)", "type": "cell-based, human", "method": "(§2) The generation of monocyte-derived macrophages (MdMs) was performed as previously described. Briefly, 0.5 × 10^6 CD14^+ cells/well were differentiated to macrophages in the presence of 10 ng/ml M-CSF (for M2 macrophages) or 10 ng/ml GM-CSF (for M1 macrophages) for 7 days. The macrophages were polarized in the presence of different concentrations of A366, MS31, or vehicle (DMSO) in 48-well plates. After pre-incubation with test substances or DMSO for 30 min, stimulants for differentiation were added: 20 ng/ml IFNγ for M1 macrophages and 10 ng/ml IL4 for M2 macrophages and incubated for 48h and 24h, respectively.\n(§3) For analysis of the surface markers, 1.5–2*10^5 cells of each sample were blocked with human FcR Blocking Reagent (15 min, 4 °C). Afterwards, samples were stained with up to 7 µl of a mixture of different surface marker antibodies (15 min, 4 °C) and 250 µl of 10 % FCS/PBS were added. After centrifugation (300 g, 5 min, 4 °C) samples were resuspended in 100 µl PBS and measured with MACSQuant® Analyzer 10 flow cytometer. For M1-/M2-MdMs, anti-CD86, anti-CD14, anti-HLA-DR, anti-CD206, anti-CD80, anti-TREM2, and anti-CD163 were used. For CD4^+ T cells, anti-CD69, anti-CD45RO, anti-CD134, anti-CD154, anti-CD3, anti-CD25 were employed. For B cells, anti-CD27, anti-CD19, and anti-CD38 were applied. Zombie Aqua™ Fixable Viability Kit (1:500 dilution, BioLegend, San Diego, CA, USA) (for CD4^+ T cells, macrophages) or Annexin/PE staining (BD Biosciences, Heidelberg, Germany) (for B cells) was used to discriminate living and dead cells according to the manufacturers protocol. For T cell and B cell proliferation assays, freshly isolated T and B cells were stained with CTV and the decrease in CTV as a result of cell proliferation was detected by flow cytometry. CTV positive cells were gated in high proliferating cells (low CTV level), medium proliferating cells (medium CTV level), and nonproliferating cells (high CTV level). Plasmablasts were characterized as CD27^+CD38^+ cells, naïve B as CD19^+CD27^lowCD38^med, and memory B cells as CD19^+CD27^med CD38^low (Supplementary Fig. 1). For M1 MdMs, the cell population was gated using FSC/SSC channel, for M2 MdMs, the CD163^med population was gated since IL4 downregulates CD163 [18] and for CD4^+ T cells, CD3^+CD25^+ cells were gated. Geometric mean of the fluorescent intensity was calculated using FlowJo software V10 (Treestar, Ashland, TN, USA). Fold induction of surface marker expression was calculated using the DMSO-treated cells as control.\n(§4) For determination of cytokine concentrations (IL10, IL17, IL8, IL6, IFNγ, CCL2) in the supernatant of humane immune cells, cytometric bead array (BD Biosciences, Heidelberg, Germany) was used. For the detection of IgG, IgA, PGE2, CCL18, and CCL17 an ELISA was performed. The cytometric bead arrays and the ELISAs were performed according to the manufacturers protocol."}, "M2 macrophages": {"tested_on": "M2 macrophages", "test": "polarization of MdMs to M2 macrophages (surface markers, cytokines, viability)", "type": "cell-based, human", "method": "as §2, §3, §4"}, "M1 MdMs [6]": {"tested_on": "M1 MdMs", "test": "energy metabolism (Seahorse OCR/ECAR), M1 MdMs", "type": "cell-based, human", "conditions": "polarized 48 h in presence of compound", "method": "(§5) The energy metabolism was determined as described previously. Briefly, for the analysis of the extracellular acidification rate (ECAR) and the oxygen consumption rate (OCR) for human M1 MdMs, M2 MdMs, and activated B-/ CD4^+ T cells, the Seahorse XFe96 FluxPak (Agilent, Waldbronn, Germany) was used as recommended by the supplier. MdMs were polarized to M1 or M2 MdMs, B- and CD4^+ T cells were activated in the presence of A366, MS31, or vehicle (DMSO) for 48 h (M1 MdMs), 24 h (M2 MdMs) or 5 days (T/B cells). Cells were washed with Seahorse XF RPMI medium pH 7.4 (Agilent, Waldbronn, Germany), and OCR and ECAR were measured for a period of 120 min using the Seahorse XFe96 Analyzer (Agilent, Waldbronn, Germany) and analyzed by Wave Software (Agilent, Waldbronn, Germany). For T/B cells, the values after 50 min of stimulation of samples were related to the unstimulated control sample. For macrophages, the values at 50 min in treated samples were related to the vehicle control."}, "M2 MdMs [7]": {"tested_on": "M2 MdMs", "test": "energy metabolism (Seahorse OCR/ECAR), M2 MdMs", "type": "cell-based, human", "conditions": "polarized 24 h in presence of compound", "method": "as §5"}, "CD4+ T cells [8]": {"tested_on": "CD4+ T cells", "test": "CD4+ T cell activation with anti-CD3/anti-CD28 (proliferation, surface markers, cytokines, viability)", "type": "cell-based", "protocol": "CTV staining was performed according to the protocol of supplier.\nFor analysis of the surface markers, 1.5–2*10^5 cells of each sample were blocked with human FcR Blocking Reagent (15 min, 4 °C). Afterwards, samples were stained with up to 7 µl of a mixture of different surface marker antibodies (15 min, 4 °C) and 250 µl of 10 % FCS/PBS were added. After centrifugation (300 g, 5 min, 4 °C) samples were resuspended in 100 µl PBS and measured with MACSQuant® Analyzer 10 flow cytometer. […] For CD4^+ T cells, anti-CD69, anti-CD45RO, anti-CD134, anti-CD154, anti-CD3, anti-CD25 were employed. […] Zombie Aqua™ Fixable Viability Kit (1:500 dilution, BioLegend, San Diego, CA, USA) (for CD4^+ T cells, macrophages) or Annexin/PE staining (BD Biosciences, Heidelberg, Germany) (for B cells) was used to discriminate living and dead cells according to the manufacturers protocol. For T cell and B cell proliferation assays, freshly isolated T and B cells were stained with CTV and the decrease in CTV as a result of cell proliferation was detected by flow cytometry. CTV positive cells were gated in high proliferating cells (low CTV level), medium proliferating cells (medium CTV level), and nonproliferating cells (high CTV level). […] For M1 MdMs, the cell population was gated using FSC/SSC channel, for M2 MdMs, the CD163^med population was gated since IL4 downregulates CD163 [18] and for CD4^+ T cells, CD3^+CD25^+ cells were gated. Geometric mean of the fluorescent intensity was calculated using FlowJo software V10 (Treestar, Ashland, TN, USA). Fold induction of surface marker expression was calculated using the DMSO-treated cells as control."}, "B cells [9]": {"tested_on": "B cells", "test": "B cell activation with IL-21, sCD40L, CpG, anti-IgM (proliferation, plasmablasts, IgG/IgA, viability)", "type": "cell-based, human", "conditions": "for B cell proliferation / formation of plasmablasts / release of IgA / release of IgG: IL-21, sCD40L, CpG, anti-IgM, 5 days, A366 and MS31 concentration-dependent", "method": "B cells were activated as described previously. Briefly, 1.25 × 10^5 B cells (stained with 0.25 µM CTV) per well were seeded in a 48 well plate and pretreated with A366, MS31, rapamycin, or vehicle (DMSO) for 30 min and then stimulated with 2.5 μg/ml CpG, 5 μg/ml unconjugated goat antihuman IgM F(ab′)2 fragments, 1 μg/ml sCD40L, and 50 ng/ml recombinant human IL-21 for 5 days.\nas §3, §4"}, "[10]": {"tested_on": "Spindlin-1-H3K4me3-interaction", "set-up": "method as in PMID 31260300, PMID 34492335", "conditions": "cited from earlier work"}, "B cells [11]": {"tested_on": "B cells", "test": "energy metabolism (Seahorse OCR/ECAR), activated B cells", "type": "cell-based, human", "conditions": "5 days", "method": "as §5"}, "[12]": {"conditions": "M1 polarization, 48 h, flow cytometry"}, "[13]": {"conditions": "M1 polarization, 48 h, supernatant"}, "[14]": {"conditions": "M2 polarization, 24 h, supernatant"}}, "note": "Like-named read-outs stand apart in the source and are kept apart here."}
{"smiles": "COc1c(CN)cc(CN)cc1OCCCN1Cc2ccccc2C1", "note": "[MS31]", "values": [{"measurement": "IC50", "setting": "[1]; range for CD4+ T cells and B cells, read-out: viability IC50 values", "result": "11 to 22", "unit": "µM"}, {"measurement": "IC50", "setting": "[1]; range over all immune cell types tested, read-out: IC50, immune cell type-dependent cytotoxicity", "result": "11 to 3120", "unit": "µM"}, {"measurement": "IC50", "setting": "monocytes", "result": 42, "unit": "µM"}, {"measurement": "IC50", "setting": "M1 MdMs [2]", "result": 3.12, "unit": "mM"}, {"measurement": "IC50", "setting": "M2 MdMs [3]", "result": 89, "unit": "µM"}, {"measurement": "IC50", "setting": "CD4+ T cells [4]", "result": 22, "unit": "µM"}, {"measurement": "IC50", "setting": "B cells [5]", "result": 11, "unit": "µM"}, {"measurement": "overall effect on M1 polarization", "setting": "M1 macrophages", "result": "may shift M1 to an M2 phenotype"}, {"measurement": "cytotoxicity during polarization of M1 macrophages", "setting": "M1 macrophages; 0–50 µM, 48 h, zombie staining", "result": "did not induce cytotoxicity"}, {"measurement": "CD163 surface marker expression", "setting": "M1 macrophages; [12]", "result": "slightly increased"}, {"measurement": "TREM2 surface marker expression", "setting": "M1 macrophages; [12]", "result": "slightly increased"}, {"measurement": "release of IFNγ", "setting": "M1 macrophages; [13]", "result": "upregulated the release of IFNγ more pronouncedly"}, {"measurement": "release of IL8", "setting": "M1 macrophages; [13]", "result": "significantly inhibited"}, {"measurement": "overall effect on M2 polarization", "setting": "M2 macrophages", "result": "may weaken M2 polarization"}, {"measurement": "cytotoxicity during polarization of macrophages to M2 MdMs", "setting": "M2 macrophages; 0–50 µM, zombie staining", "result": "did not induce cytotoxicity"}, {"measurement": "CD86 surface marker expression", "setting": "M2 macrophages; M2 polarization, 24 h, flow cytometry", "result": "reduced"}, {"measurement": "CCL2 release", "setting": "M2 macrophages; [14]", "result": "reduced"}, {"measurement": "CCL18 release", "setting": "M2 macrophages; [14]", "result": "increased"}, {"measurement": "IL10 release", "setting": "M2 macrophages; [14]", "result": "reduced"}, {"measurement": "PGE2 release", "setting": "M2 macrophages; [14]", "result": "reduced"}, {"measurement": "energy metabolism (OCR, ECAR) of M1 MdMs", "setting": "M1 MdMs [6]", "result": "did not affect"}, {"measurement": "OCR in M2 MdMs", "setting": "M2 MdMs [7]", "result": "only slightly increased"}, {"measurement": "cytotoxic effects on CD4+ T cells", "setting": "CD4+ T cells [8]; 0–10 µM, 5 days", "result": "no cytotoxic effects"}, {"measurement": "CD134 expression", "setting": "CD4+ T cells [8]; activated CD4+ T cells, 5 days", "result": "increased"}, {"measurement": "activation of CD4+ T cells (CD25 positive, CD25 and CD69 positive cells, CD69)", "setting": "CD4+ T cells [8]; anti-CD3/anti-CD28, 5 days", "result": "did not influence"}, {"measurement": "proliferation of CD4+ T cells", "setting": "CD4+ T cells [8]; anti-CD3/anti-CD28, 5 days, CTV", "result": "did not affect"}, {"measurement": "B cell activation (proliferation, plasmablast formation, release of immunoglobulins A and G)", "setting": "B cells [9]; 2.5 µM", "result": "clearly prevented"}, {"measurement": "B cell proliferation", "setting": "B cells [9]", "result": "markedly reduced"}, {"measurement": "formation of plasmablasts", "setting": "B cells [9]", "result": "markedly reduced"}, {"measurement": "release of IgA", "setting": "B cells [9]", "result": "markedly reduced"}, {"measurement": "release of IgG", "setting": "B cells [9]", "result": "markedly reduced"}, {"measurement": "IC50", "setting": "[10]", "result": 77, "unit": "nM"}]}
{"smiles": "CO[C@H]1C[C@@H]2CC[C@@H](C)[C@@](O)(O2)C(=O)C(=O)N2CCCC[C@H]2C(=O)O[C@H]([C@H](C)C[C@@H]2CC[C@@H](O)[C@H](OC)C2)CC(=O)[C@H](C)/C=C(\\C)[C@@H](O)[C@@H](OC)C(=O)[C@H](C)C[C@H](C)/C=C/C=C/C=C/1C", "note": "[rapamycin]", "values": [{"measurement": "B cell proliferation", "setting": "B cells [9]", "result": "inhibit"}, {"measurement": "formation of plasmablasts", "setting": "B cells [9]", "result": "inhibit"}, {"measurement": "release of IgA", "setting": "B cells [9]", "result": "inhibit"}, {"measurement": "release of IgG", "setting": "B cells [9]", "result": "inhibit"}, {"measurement": "energy metabolism of activated B cells (OCR, ECAR)", "setting": "B cells [11]", "result": "induced both glycolysis and oxidative phosphorylation"}]}
